# Source: patent publication US20100152434A1, “Protein Kinase-binding Nucleosides and Associated Methods” (priority 2007, published 2010)
# pIC50: −log10 of the molar value. Where two headings read alike, the source gives them in different places.
# What was measured:
# [1] = system: CCRF-CEM
# [2] = system: HCT-116
# [3] = system: SK-MEL-5
# [4] = system: UACC-257
# [5] = system: OVCAR-3
# [6] = system: OVCAR-5
# [7] = system: SK-OV-3
# [8] = system: 788-0; conditions: 786-0
# [9] = system: MCF7
# [10] = system: NCI/ADR-RES; conditions: NCI/ADR-RES (Ovarian Cancer panel)
# [11] = system: MDA-MB-231/ATCC
# [12] = system: BT-549
# [13] = system: HOP-92; test: cells; conditions: Homo sapiens, HOP-92
# [14] = system: NCI-H23; test: cells; conditions: Homo sapiens, NCI-H23
# [15] = system: NCI-H322M; test: cells; conditions: Homo sapiens
# [16] = system: NCI-H460; test: cells; conditions: Homo sapiens, NCI-H460
# [17] = system: HT29; test: cells; conditions: Homo sapiens, HT-29
# [18] = system: KM12; test: cells; conditions: Homo sapiens, KM12
# [19] = system: SF-295; test: cells; conditions: Homo sapiens, SF-295
# [20] = system: SNB-19; test: cells; conditions: Homo sapiens, SNB-19
# [21] = system: MALME-3M; test: cells; conditions: Homo sapiens
# [22] = system: SK-MEL-5; test: cells; conditions: Homo sapiens, SK-MEL-5
# [23] = system: OVCAR-4; test: cells; conditions: Homo sapiens, OVCAR-4
# [24] = system: OVCAR-8; test: cells; conditions: Homo sapiens, OVCAR-8
# [25] = system: SK-OV-3; test: cells; conditions: Homo sapiens, SK-OV-3
# [26] = system: RXF 393; test: cells; conditions: Homo sapiens, RXF 393
# [27] = system: SN12C; test: cells; conditions: Homo sapiens
# [28] = Log10 Concentration −4.0, Molar
# [29] = Log10 Concentration −5.0, Molar
# [30] = Log10 Concentration −6.0, Molar
# [31] = Log10 Concentration −7.0, Molar
# [32] = Log10 Concentration −8.0, Molar
smiles,measurement,setting,value
"CNC(=O)NC[C@H]1O[C@@H](n2cnc3c(NC(=O)Nc4ccccc4)ncnc32)C(O[Si](C)(C)C(C)(C)C)[C@H]1O[Si](C)(C)C(C)(C)C (stereo partly drawn) [Compound 25, 2′,3′-Bis-O-(tert-butyldimethylsilyl)-5-deoxy-5′-[(N-methylcarbamoyl)amino]-N^6-(N-phenylcarbamoyl)adenosine]",TGI,[1],>1.00E−4 Molar
same,Percent Growth,[1]; [28],4%
same,Percent Growth,[1]; [29],9%
same,Percent Growth,[1]; [30],101%
same,Percent Growth,[1]; [31],109%
same,Percent Growth,[1]; [32],104%
same,TGI,[2],4.31E−6 Molar
same,Percent Growth,[2]; [28],−100%
same,Percent Growth,[2]; [29],−59%
same,Percent Growth,[2]; [30],102%
same,Percent Growth,[2]; [31],105%
same,Percent Growth,[2]; [32],107%
same,TGI,[3],4.75E−6 Molar
same,Percent Growth,[3]; [28],−99%
same,Percent Growth,[3]; [29],−42%
same,Percent Growth,[3]; [30],82%
same,Percent Growth,[3]; [31],96%
same,Percent Growth,[3]; [32],102%
same,TGI,[4],2.02E−5 Molar
same,Percent Growth,[4]; [28],−24%
same,Percent Growth,[4]; [29],11%
same,Percent Growth,[4]; [30],104%
same,Percent Growth,[4]; [31],100%
same,Percent Growth,[4]; [32],97%
same,TGI,[5],5.54E−6 Molar
same,Percent Growth,[5]; [28],−50%
same,Percent Growth,[5]; [29],−39%
same,Percent Growth,[5]; [30],113%
same,Percent Growth,[5]; [31],113%
same,Percent Growth,[5]; [32],111%
same,TGI,[6],2.52E−5 Molar
same,Percent Growth,[6]; [28],−43%
same,Percent Growth,[6]; [29],29%
same,Percent Growth,[6]; [30],103%
same,Percent Growth,[6]; [31],99%
same,Percent Growth,[6]; [32],96%
same,TGI,[7],>1.00E−4 Molar
same,Percent Growth,[7]; [28],5%
same,Percent Growth,[7]; [29],39%
same,Percent Growth,[7]; [30],107%
same,Percent Growth,[7]; [31],113%
same,Percent Growth,[7]; [32],106%
same,TGI,[8],3.71E−6 Molar
same,Percent Growth,[8]; Log10 Concentration −4.0 Molar,−80%
same,Percent Growth,[8]; Log10 Concentration −5.0 Molar,−83%
same,Percent Growth,[8]; Log10 Concentration −6.0 Molar,110%
same,Percent Growth,[8]; Log10 Concentration −7.0 Molar,113%
same,Percent Growth,[8]; Log10 Concentration −8.0 Molar,103%
same,TGI,[9],1.93E−5 Molar
same,Percent Growth,[9]; [28],−15%
same,Percent Growth,[9]; [29],5%
same,Percent Growth,[9]; [30],83%
same,Percent Growth,[9]; [31],96%
same,Percent Growth,[9]; [32],99%
same,TGI,[10],2.07E−5 Molar
same,Percent Growth,[10]; Log10 Concentration −4.0 Molar,−21%
same,Percent Growth,[10]; Log10 Concentration −5.0 Molar,10%
same,Percent Growth,[10]; Log10 Concentration −6.0 Molar,103%
same,Percent Growth,[10]; Log10 Concentration −7.0 Molar,109%
same,Percent Growth,[10]; Log10 Concentration −8.0 Molar,105%
same,TGI,[11],5.12E−6 Molar
same,Percent Growth,[11]; [28],−76%
same,Percent Growth,[11]; [29],−20%
same,Percent Growth,[11]; [30],106%
same,Percent Growth,[11]; [31],109%
same,Percent Growth,[11]; [32],105%
same,TGI,[12],9.18E−6 Molar
same,Percent Growth,[12]; [28],−35%
same,Percent Growth,[12]; [29],−10%
same,Percent Growth,[12]; [30],103%
same,Percent Growth,[12]; [31],112%
same,Percent Growth,[12]; [32],113%
same,GI50,[13],15.5 µM
same,pIC50,[13],4.01
same,GI50,[14],3.17 µM
same,pIC50,[14],4.07
same,GI50,[15],6.86 µM
same,pIC50,[15],< 4.00
same,GI50,[16],1.72 µM
same,pIC50,[16],5.15
same,GI50,[17],2.02 µM
same,pIC50,[17],5.05
same,GI50,[18],2.13 µM
same,pIC50,[18],5.09
same,GI50,[19],3.84 µM
same,pIC50,[19],< 4.00
same,GI50,[20],4.57 µM
same,pIC50,[20],< 4.00
same,GI50,[21],2.98 µM
same,pIC50,[21],< 4.00
same,GI50,[22],1.98 µM
same,pIC50,[22],4.87
same,GI50,[23],3.44 µM
same,pIC50,[23],< 4.00
same,GI50,[24],4.01 µM
same,pIC50,[24],< 4.00
same,GI50,[25],5.88 µM
same,pIC50,[25],< 4.00
same,GI50,[26],2.14 µM
same,pIC50,[26],5.12
same,GI50,[27],1.81 µM
same,pIC50,[27],5.20
